pIC50: −log10 of the molar value. Structures can show the parent of a compound that is named as a salt.
What follows are molecules tested against hNav1.7 (Homo sapiens (Human), UniProt Q15858) (assay: Patch voltage clamp electrophysiology (EP), Syncropatch 384PE, CHO cells stably expressing Nav1.7). Conditions: holding potential −50 mV, 7.5 min compound incubation, read-out: EP_SP hNav1.7 EVO IC50.
Assay type: cell-based
Text: Example 64c. Electrophysiological Assay (EP) (In Vitro Assay)
Patch voltage clamp electrophysiology allows for the direct measurement and quantification of block of voltage-gated sodium channels (NaV's), and allows the determination of the time- and voltage-dependence of block which has been interpreted as differential binding to the resting, open, and inactivated states of the sodium channel (Hille, B., Journal of General Physiology (1977), 69: 497-515).
The following voltage clamp electrophysiology studies are performed on representative compounds using cells heterologously expressing Nav1.7 or Nav1.5 channels. cDNAs for Nav1.7 (NM_002977) and Nav1.5 (AC137587) are stably expressed in Chinese Hamstr Ovary (CHO) cells and CHL (Chinese Hamster Lung) cells respectively. Sodium currents are measured in the whole-cell configuration using Syncropatch 384PE (Nanlon Technologies, Germany). 1NPC®-384 chips with custom medium resistance and single hole mode are used. Internal solution consists of (in mM): […], 10 CsCl, 20 EGTA, and 10 Hepes (pH adjusted to 7.2); and external solution contains (in mM): 60 NMDG, 80 NaCl, 4 KCl, 1 MgCl2, 2 CaCl2, 2 D-Glucose monohydrate, 10 Hepes (pH adjusted to 7.4 with NaOH).
After system flushing, testing compounds are dissolved in external solution containing 0.1% Pluronic F-127. The chip is moved into the measuring head and the instrument primes the chip with external and internal solutions. 10 μl cells are added to the chip from a cell hotel, and a negative pressure of −50 mBar is applied to form a seal. Following treatment with seal enhancer solution and wash-off with external solution, negative pressure of −250 mbar is applied for 1 second to achieve the whole-cell configuration, followed by three washing steps in external solution. 20 μl of compounds is added to 40 μl in each well (1:3 dilution of compounds), and after mixing, 20 μl is removed so the volume is retained at 40 ul. After approximately 13 minutes recordings, 20 μl/well of 2 uM TTX, or 333 uM Tetracaine (for […]) is added to achieve full block.
For voltage protocol, an holding potential of −50 mV is applied during the whole experiment. A depolarizing step is applied to −10 mV for 10 ms, followed by a hyperpolarization step to −150 mV for 20 ms to allow channel recovery from inactivation. A second depolarizing step is applied from −150 mV to −10 mV for 10 ms, where currents are measured to derive blocking effects of compounds. Inhibition is determined based on 7.5 min of compound incubation.

Sequence of hNav1.7 (Q15858 other isoform, or with tags, fused parts or gaps): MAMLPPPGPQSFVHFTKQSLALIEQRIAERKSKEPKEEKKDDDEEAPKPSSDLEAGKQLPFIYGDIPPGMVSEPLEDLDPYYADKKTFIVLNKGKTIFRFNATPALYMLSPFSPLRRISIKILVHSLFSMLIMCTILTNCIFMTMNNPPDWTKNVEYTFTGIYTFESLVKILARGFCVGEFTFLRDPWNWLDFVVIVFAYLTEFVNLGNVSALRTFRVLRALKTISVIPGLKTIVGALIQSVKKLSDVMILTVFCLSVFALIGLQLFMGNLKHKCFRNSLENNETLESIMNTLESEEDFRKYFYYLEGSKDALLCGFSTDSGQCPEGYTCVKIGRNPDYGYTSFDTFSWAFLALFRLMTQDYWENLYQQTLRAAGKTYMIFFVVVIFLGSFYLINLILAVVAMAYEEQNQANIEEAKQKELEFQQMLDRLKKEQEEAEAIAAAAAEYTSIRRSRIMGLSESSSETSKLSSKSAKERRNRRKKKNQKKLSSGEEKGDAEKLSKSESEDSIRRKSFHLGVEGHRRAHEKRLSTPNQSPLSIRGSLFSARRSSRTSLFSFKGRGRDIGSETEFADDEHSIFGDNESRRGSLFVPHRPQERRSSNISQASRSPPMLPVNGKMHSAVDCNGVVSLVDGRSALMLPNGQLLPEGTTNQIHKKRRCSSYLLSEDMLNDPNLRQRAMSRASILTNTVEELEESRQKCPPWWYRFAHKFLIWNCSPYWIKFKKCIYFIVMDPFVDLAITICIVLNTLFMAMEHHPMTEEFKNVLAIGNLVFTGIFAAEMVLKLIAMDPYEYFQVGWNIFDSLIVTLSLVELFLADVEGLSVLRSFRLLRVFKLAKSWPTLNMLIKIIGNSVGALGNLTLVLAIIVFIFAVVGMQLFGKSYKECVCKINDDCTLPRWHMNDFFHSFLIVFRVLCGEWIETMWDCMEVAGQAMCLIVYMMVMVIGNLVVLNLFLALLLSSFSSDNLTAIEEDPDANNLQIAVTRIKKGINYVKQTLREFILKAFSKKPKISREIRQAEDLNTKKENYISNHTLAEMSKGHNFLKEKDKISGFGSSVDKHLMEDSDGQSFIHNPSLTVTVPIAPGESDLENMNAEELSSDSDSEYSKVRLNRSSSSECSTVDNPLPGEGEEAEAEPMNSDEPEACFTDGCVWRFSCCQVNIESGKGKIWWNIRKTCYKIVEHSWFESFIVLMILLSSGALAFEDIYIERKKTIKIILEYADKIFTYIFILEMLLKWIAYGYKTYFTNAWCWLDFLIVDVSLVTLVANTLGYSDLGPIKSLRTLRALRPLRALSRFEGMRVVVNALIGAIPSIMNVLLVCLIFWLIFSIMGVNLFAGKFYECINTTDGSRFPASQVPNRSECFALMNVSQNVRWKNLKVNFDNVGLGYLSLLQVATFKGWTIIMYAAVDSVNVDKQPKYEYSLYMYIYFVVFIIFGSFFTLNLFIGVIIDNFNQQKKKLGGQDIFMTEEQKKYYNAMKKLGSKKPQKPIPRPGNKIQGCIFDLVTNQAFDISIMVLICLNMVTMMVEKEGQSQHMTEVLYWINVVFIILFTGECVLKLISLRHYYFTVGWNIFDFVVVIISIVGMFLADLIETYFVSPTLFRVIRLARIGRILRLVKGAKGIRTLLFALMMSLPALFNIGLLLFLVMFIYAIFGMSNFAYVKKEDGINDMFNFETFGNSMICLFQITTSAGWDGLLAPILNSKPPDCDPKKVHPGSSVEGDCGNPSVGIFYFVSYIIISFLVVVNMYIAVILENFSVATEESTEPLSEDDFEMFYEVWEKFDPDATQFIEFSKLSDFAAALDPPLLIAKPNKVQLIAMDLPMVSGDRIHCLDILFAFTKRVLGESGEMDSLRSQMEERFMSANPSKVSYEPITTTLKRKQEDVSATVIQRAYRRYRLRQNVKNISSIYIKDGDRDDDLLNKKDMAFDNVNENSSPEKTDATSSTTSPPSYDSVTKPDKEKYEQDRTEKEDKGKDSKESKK

Structure (SMILES) | pIC50
Cc1nc(O[C@H]2CC[C@H](c3cccc(OC(F)(F)F)c3)C[C@@H]2N(C)C)ccc1S(=O)(=O)Nc1ccncn1 [Example 28, 6-(((1S,2S,4S)-2-(Dimethylamino)-4-(3-(trifluoromethoxy)phenyl)cyclohexyl)oxy)-2-methyl-N-(pyrimidin-4-yl)pyridine-3-sulfonamide] | 9.18
Cc1nc(O[C@H]2CC[C@H](c3cccc(C(F)(F)F)c3)C[C@@H]2N2CCCC2)ccc1S(=O)(=O)Nc1ccncn1 [Example 29, 2-Methyl-N-(pyrimidin-4-yl)-6-(((1S,2S,4S)-2-(pyrrolidin-1-yl)-4-(3-(trifluoromethyl)phenyl)-cyclohexyl)oxy)pyridine-3-sulfonamide] | 8.25
Cc1nc(O[C@H]2CC[C@H](c3cccc(OC(F)(F)F)c3)C[C@@H]2N2CCCC2)ccc1S(=O)(=O)Nc1ccncn1 [Example 30, 2-Methyl-N-(pyrimidin-4-yl)-6-(((1S,2S,4S)-2-(pyrrolidin-1-yl)-4-(3-(trifluoromethoxy)phenyl)-cyclohexyl)oxy)pyridine-3-sulfonamide] | 8.97
CN(C)[C@H]1C[C@@H](c2cccc(C(F)(F)F)c2)CC[C@@H]1Oc1cc(Cl)c(S(=O)(=O)Nc2ccncn2)cn1 [Example 31, 4-Chloro-6-(((1S,2S,4S)-2-(dimethylamino)-4-(3-(trifluoromethyl)phenyl)cyclohexyl)oxy)-N-(pyrimidin-4-yl)pyridine-3-sulfonamide] | 8.00
Cc1cc(O[C@H]2CC[C@H](c3cccc(C(F)(F)F)c3)C[C@@H]2N(C)C)ncc1S(=O)(=O)Nc1ccncn1 [Example 32, 6-(((1S,2S,4S)-2-(Dimethylamino)-4-(3-(trifluoromethyl)phenyl)cyclohexyl)oxy)-4-methyl-N-(pyrimidin-4-yl)pyridine-3-sulfonamide] | 7.43
CCc1nc(O[C@H]2CC[C@H](c3cccc(C(F)(F)F)c3)C[C@@H]2N(C)C)ccc1S(=O)(=O)Nc1ccncn1 [Example 33, 6-(((1S,2S,4S)-2-(Dimethylamino)-4-(3-(trifluoromethyl)phenyl)cyclohexyl)oxy)-2-ethyl-N-(pyrimidin-4-yl)pyridine-3-sulfonamide] | 7.79
CN(C)[C@H]1C[C@@H](c2cccc(C(F)(F)F)c2)CC[C@@H]1Oc1ccc(S(=O)(=O)Nc2ccncn2)c(C2CC2)n1 [Example 34, 2-Cyclopropyl-6-(((1S,2S,4S)-2-(dimethylamino)-4-(3-(trifluoromethyl)phenyl)-cyclohexyl)oxy)-N-(pyrimidin-4-yl)pyridine-3-sulfonamide] | 6.81
Cc1nc(O[C@H]2CC[C@H](c3cccc(C(F)(F)F)c3)C[C@@H]2N(C)C2CCC2)ccc1S(=O)(=O)Nc1ccncn1 [Example 35, 6-(((1S,2S,4S)-2-(Cyclobutyl(methyl)amino)-4-(3-(trifluoromethyl)phenyl)cyclohexyl)oxy)-2-methyl-N-(pyrimidin-4-yl)pyridine-3-sulfonamide] | 9.22
Cc1nc(O[C@H]2CC[C@H](c3ccc(Cl)c(C(F)(F)F)c3)C[C@@H]2N(C)C)ccc1S(=O)(=O)Nc1ccncn1 [Example 36, 6-(((1S,2S,4S)-4-(4-chloro-3-(trifluoromethyl)phenyl)-2-(dimethylamino)cyclohexyl)oxy)-2-methyl-N-(pyrimidin-4-yl)pyridine-3-sulfonamide] | 9.61
Cc1nc(O[C@H]2CC[C@H](c3cc(C(F)(F)F)ccc3Cl)C[C@@H]2N(C)C)ccc1S(=O)(=O)Nc1ccncn1 [Example 38, 6-(((1S,2S,4S)-4-(2-chloro-5-(trifluoromethyl)phenyl)-2-(dimethylamino)cyclohexyl)oxy)-2-methyl-N-(pyrimidin-4-yl)pyridine-3-sulfonamide] | 9.39
Cc1nc(O[C@H]2CC[C@H](c3cc(Cl)ccc3Cl)C[C@@H]2N(C)C)ccc1S(=O)(=O)Nc1ccncn1 [Example 39, 6-(((1S,2S,4S)-4-(2,5-dichlorophenyl)-2-(dimethylamino)cyclohexyl)oxy)-2-methyl-N-(pyrimidin-4-yl)pyridine-3-sulfonamide formate] | 9.19
O=S(=O)(Nc1ccncn1)c1cnc(O[C@H]2CC[C@H](c3cccc(C(F)(F)F)n3)C[C@@H]2N2CCCC2)c(Cl)c1 [Example 40, 5-chloro-N-(pyrimidin-4-yl)-6-(((1S,2S,4S)-2-(pyrrolidin-1-yl)-4-(6-(trifluoromethyl)pyridin-2-yl)cyclohexyl)oxy)pyridine-3-sulfonamide] | 8.41
Cc1nc(O[C@H]2CC[C@H](c3cc(F)cc(C(F)(F)F)c3)C[C@@H]2N(C)C)ccc1S(=O)(=O)Nc1ccncn1 [Example 42, 6-(((1S,2S,4S)-2-(Dimethylamino)-4-(3-fluoro-5-(trifluoromethyl)phenyl)cyclohexyl)oxy)-2-methyl-N-(pyrimidin-4-yl)pyridine-3-sulfonamide] | 9.19
Cc1nc(O[C@H]2CC[C@H](c3cc(C(F)(F)F)ccc3F)C[C@@H]2N(C)C)ccc1S(=O)(=O)Nc1ccncn1 [Example 43, 6-(((1S,2S,4S)-2-(Dimethylamino)-4-(2-fluoro-5-(trifluoromethyl)phenyl)cyclohexyl)oxy)-2-methyl-N-(pyrimidin-4-yl)pyridine-3-sulfonamide formate] | 9.16
CN(C)[C@H]1C[C@@H](c2cc(C(F)(F)F)ccc2F)CC[C@@H]1Oc1ccc(S(=O)(=O)Nc2ccncn2)c(Cl)n1 [Example 44, 2-Chloro-6-(((1S,2S,4S)-2-(dimethylamino)-4-(2-fluoro-5-(trifluoromethyl)phenyl)-cyclohexyl)oxy)-N-(pyrimidin-4-yl)pyridine-3-sulfonamide formate] | 8.74
Cc1nc(O[C@H]2CC[C@H](c3ccc(F)c(C(F)(F)F)c3)C[C@@H]2N(C)C)ccc1S(=O)(=O)Nc1ccncn1 [Example 45, 6-(((1S,2S,4S)-2-(Dimethylamino)-4-(4-fluoro-3-(trifluoromethyl)phenyl)cyclohexyl)oxy)-2-methyl-N-(pyrimidin-4-yl)pyridine-3-sulfonamide formate] | 9.33
Cc1nc(O[C@H]2CC[C@H](c3cccc(C(F)(F)F)c3F)C[C@@H]2N(C)C)ccc1S(=O)(=O)Nc1ccncn1 [Example 46, 6-(((1S,2S,4S)-2-(Dimethylamino)-4-(2-fluoro-3-(trifluoromethyl)phenyl)cyclohexyl)oxy)-2-methyl-N-(pyrimidin-4-yl)pyridine-3-sulfonamide formate] | 9.04
CCN(CC)[C@H]1C[C@@H](c2cccc(C(F)(F)F)c2)CC[C@@H]1Oc1ccc(S(=O)(=O)Nc2ccncn2)c(C)n1 [Example 47, 6-(((1S,2S,4S)-2-(Diethylamino)-4-(3-(trifluoromethyl)phenyl)cyclohexyl)oxy)-2-methyl-N-(pyrimidin-4-yl)pyridine-3-sulfonamide] | 8.76
CCN(C)[C@H]1C[C@@H](c2cccc(C(F)(F)F)c2)CC[C@@H]1Oc1ccc(S(=O)(=O)Nc2ccncn2)c(C)n1 [Example 48, 6-(((1S,2S,4S)-2-(Ethyl(methyl)amino)-4-(3-(trifluoromethyl)phenyl)cyclohexyl)oxy)-2-methyl-N-(pyrimidin-4-yl)pyridine-3-sulfonamide] | 9.57
Cc1nc(O[C@H]2CC[C@H](c3cc(Cl)cc(C(F)(F)F)c3)C[C@@H]2N(C)C)ccc1S(=O)(=O)Nc1ccncn1 [Example 49, 6-(((1S,2S,4S)-4-(3-chloro-5-(trifluoromethyl)phenyl)-2-(dimethylamino)cyclohexyl)oxy)-2-methyl-N-(pyrimidin-4-yl)pyridine-3-sulfonamide] | 9.73
